# “And” between values parts separate entries of the source, which are not always exact repeats. Identical values can stand only once. “Also recorded” adds a separate entry of the source.
# Tests used:
# [1] = test system: PTZ-induced seizures in C57BL/6 mice; assay: PTZ-induced seizures and mortality, anticonvulsant pretreatment; settings: for Animal Mortality: dead/total animals
# C57B/6 mice = assay: Toxicity or lethality of molecule D4, supervision protocol; format: in vivo; settings: 0.2, 2, 20, 200, 2000 mg/kg i.p.
# Procedure: To evaluate the toxicity or lethality of the molecule D4, Two-month adult mice were injected intraperitoneally in increasing doses (0.2; 2; 20; 200; 2000 mg/kg mouse weight) and were left under observation for 72 hours. After the observation time, the behavioral and physiological aspects of the animals were evaluated based on the Protocol of Supervision according to the Bioethics and Biosafety guidelines of the Faculty of Biological Sciences of the Pontificia Universidad Catolica de Chile that rules in the laboratory. The variables considered included physiological data (weight loss), appearance (posture) and spontaneous behavior (attitude to stimulation). […] In addition, mortality was zero at all concentrations evaluated. The evaluation of mortality of the molecule D4 as an anticonvulsant drug administered in mice prior to the induction of epilepsy with PTZ was zero (Table 3).
# Measurements are performed by trained personnel, who know the basal or usual behavior of the animals under study.
# [2] = test system: connexin hemichannels in brain cells; assay: Ethidium uptake in brain slices of mice pretreated with D4 before PTZ; format: in vivo; settings: D4 2 mg/kg i.p. six and one hour before PTZ (70 mg/kg), 30 min post PTZ; microglia, astrocytes and neurons
# Procedure: Immunofluorescence and visualization in confocal microscopy identified cell types.
# The mean data from ethidium uptake was normalized to the control condition (see FIG. 5, dotted line) of each cell type. […] The results obtained were expressed as the mean±SEM. Samples were determined using the Student's t-test (*p<0.05).
# [3] = test system: hemichannels and channels formed by connexins and pannexins; assay: Ethidium uptake in brain slices of PTZ-treated mice, slices treated with Cbx; format: cell-based; settings: for PTZ-induced ethidium uptake: 20 min on slices, astrocytes, oligodendrocytes and neurons
# Procedure: Adult male mice at 2 months were injected intraperitoneally with PTZ (70 mg/kg) or PBS as a control. After 30 min post injection of the treatment, the action of Cbx at two concentrations was evaluate, 10 μM to block pannexin hemichannels and 100 μM to block both connexin and pannexin-based channels. The mice were sacrificed to extract the brains and obtain coronal slices 400 μm thick. The slices, once stabilized, were treated with Cbx for 20 min and then incubated with the ethidium bromide dye (4 μM) for 10 minutes. Thereafter, the slices were fixed and the immunofluorescence staining process was continued as described above. The mean data of ethidium uptake was normalized to the control condition (dotted line) of each cell type. […] The results obtained were expressed as the mean±SEM. Samples were determined using the Student's t-test (*p<0.05).
# adult C57BL/6 mice = assay: PTZ dose response, epileptogenic episodes and mortality in mice; format: in vivo; settings: for Mortality: dead/total animals
# Procedure: As epileptogenic agent, we used PTZ (Pentylenetetrazole), a GABAA receptor inhibitor widely used in the study and development of anticonvulsant drugs.
# To determine the effective dose, a dose response curve was performed based on the available literature. […]
# [4] = test system: connexin hemichannels in brain cells; assay: Ethidium uptake in brain slices of PTZ-treated mice (time course); format: in vivo; settings: PTZ 70 mg/kg i.p.
# Procedure: Adult male mice of 2 months were injected via i.p. with PTZ (70 mg/kg) or phosphate buffered saline (PBS) as a control. Mice were sacrificed after 10, 20 and 30 min post-treatment to extract the brains and generate coronal slices of 400 μm thick using a vibratome. The slices were stabilized for 1 h prior to dye uptake, immersed in ACSF (artificial cerebrospinal fluid), bubbled with 95% O2 and 5% CO2 and at room temperature. Brain slices were incubated with the ethidium bromide dye (Etd, 4 μM) for 10 minutes. Subsequently, the slices were washed and fixed for 1 h with paraformaldehyde (4%). The brain slices were incubated for 40 min with blocking solution (PBS, 0.2% gelatine, 1% triton). Subsequently, the samples were incubated overnight at 4° C. with the primary antibody against molecular markers of the different cell types: anti-mast cell “Transmembrane tyrosine kinase” receptor CD117 (CD117); Integrin αM anti-microglia (CD11b); anti-astrocytes “glial fibrillary acidic protein” (GFAP); anti-oligodendrocytes “proteolipid protein” (PLP) and anti-neuronal neuron-market (NeuN). After washing with PBS (phosphate buffered saline), they were incubated with the Cy2-conjugated secondary antibody for 2 hours at room temperature and avoiding light.
# Finally, the brain slices were washed and mounted on Flouromount G mounting medium and observed directly by the laser-scanning confocal microscope (Nikon Eclipse Ti). Consecutive images were taken with 40× target at 1 μm intervals sequentially with two lasers (Argon, 488 nm and Helium/Neon, 543 nm). In FIG. 1, representative images of mast cells (1.A, C), microglia (1.E, F), astrocytes (1.1, K), oligodendrocytes (1.M, O) and neurons (1.Q, S) and Etd-uptake of PTZ-induced control mice and mice (1.B, D, 1.F, H, 1.J, L, 1.N, P, 1.R, T).
# The mean data of ethidium uptake was normalized to the control condition (dotted line) of each cell type. […] The results obtained were expressed as the mean±SEM. Samples were determined using the Student's t-test (*p<0.05).
# glial hemichannels = assay: Application of PTZ to brain slices; format: cell-based; settings: PTZ applied to brain slices
# [5] = PTZ (70 mg/kg) without molecule D4
smiles,measurement,setting,value
"O=C1NC(=O)C(c2ccccc2)(c2ccccc2)N1 [phenytoin, Phenytoin]",prevention of PTZ-induced seizures,"[1]; phenytoin treatment, after 10 minutes of treatment",does not prevent PTZ-induced seizures
"O=C(OC(C(=O)c1ccc(Cl)cc1)c1ccccc1)c1ccc2ccccc2n1 (centres unmarked) [Molecule D4, 2-(4-chlorophenyl)-2-oxo-1-phenylethyl quinoline-2-carboxylate]",Mortality,C57B/6 mice; 72 hours observation,zero
same,observable side effects,"C57B/6 mice; 72 hours observation, 2000 mg/kg",no observed side effects; also recorded: no observable side effects
same,"supervision protocol score (weight loss, posture, spontaneous behavior)","C57B/6 mice; 72 hours, score 0-3 is normal",zero
same,PTZ-induced hemichannel activity (ethidium uptake),[2],blocks the activity of hemichannels formed by PTZ-induced connexin in brain cells; also recorded: not positive to Etd; also recorded: blocks PTZ-induced hemichannel activity and basal activation
same,Animal Mortality,[1]; Molecule D4 (2 mg/kg) prior to PTZ (70 mg/kg),zero
"CC1(C)[C@@H](OC(=O)CCC(=O)O)CC[C@]2(C)[C@H]3C(=O)C=C4[C@@H]5C[C@@](C)(C(=O)O)CC[C@]5(C)CC[C@@]4(C)[C@]3(C)CC[C@@H]12 [Carbenoxolone, carbenoxolone]",PTZ-induced ethidium uptake,[3]; Cbx 10 μM,block the uptake of ethidium
same,PTZ-induced ethidium uptake,[3]; Cbx 100 μM,block the uptake of ethidium
same,PTZ-induced hemichannel and channel activity,"[3]; FIG. 3 legend, macroglia and neurons",blocks hemispheric activity formed by PTZ-induced connexins and channels
"C1CCc2nnnn2CC1 [PTZ, Pentylenetetrazole]",% Mortality,adult C57BL/6 mice; PTZ 65 mg/kg i.p. single dose,0%
same,Eliptogenic Episode,adult C57BL/6 mice; PTZ 65 mg/kg i.p. single dose,No
same,Mortality,adult C57BL/6 mice; PTZ 65 mg/kg i.p. single dose,0/3
same,% Mortality,adult C57BL/6 mice; PTZ 70 mg/kg i.p. single dose,20%
same,Eliptogenic Episode,adult C57BL/6 mice; PTZ 70 mg/kg i.p. single dose,induces convulsions and Yes
same,Mortality,adult C57BL/6 mice; PTZ 70 mg/kg i.p. single dose,without being lethal and 3/15
same,% Mortality,adult C57BL/6 mice; PTZ 75 mg/kg i.p. single dose,50%
same,Eliptogenic Episode,adult C57BL/6 mice; PTZ 75 mg/kg i.p. single dose,Yes
same,Mortality,adult C57BL/6 mice; PTZ 75 mg/kg i.p. single dose,2/4
same,% Mortality,adult C57BL/6 mice; PTZ 80 mg/kg i.p. single dose,100%
same,Eliptogenic Episode,adult C57BL/6 mice; PTZ 80 mg/kg i.p. single dose,Yes
same,Mortality,adult C57BL/6 mice; PTZ 80 mg/kg i.p. single dose,3/3
same,% Mortality,adult C57BL/6 mice; PTZ 90 mg/kg i.p. single dose,100%
same,Eliptogenic Episode,adult C57BL/6 mice; PTZ 90 mg/kg i.p. single dose,Yes
same,Mortality,adult C57BL/6 mice; PTZ 90 mg/kg i.p. single dose,3/3
same,time to develop seizures post-administration,adult C57BL/6 mice; PTZ-treated mice,≤ 10 min
same,behaviour in the hours after the seizures,"adult C57BL/6 mice; PTZ-treated mice, period of several hours",very low motor activity and sporadic contractions
same,epileptogenic episodes,adult C57BL/6 mice; higher doses (>100 mg/kg),induce epileptogenic episodes
same,mortality rate,"adult C57BL/6 mice; higher doses (>100 mg/kg), at 5 min after administration",100%
same,epileptogenic episodes,adult C57BL/6 mice; lower dose (<65 mg/kg),does not induce evident epileptogenic episodes
same,hemichannel activity (ethidium uptake) in brain slices,[4]; versus control mice,induces activity of connexin hemichannels in brain cells; also recorded: positive for high activity of hemichannels; also recorded: positive for Etd fluorescence
same,hemichannel activity (ethidium uptake normalized to control),"[4]; astrocytes and oligodendrocytes, first (FIG. 2.A)",increases the activity of the hemichannels
same,hemichannel activity (ethidium uptake normalized to control),"[4]; mast cells, microglia and neurons, after 30 min (FIG. 2.B and C)",increases the activity of the hemichannels
same,opening of glial hemichannels,glial hemichannels,induced the opening of glial hemichannels
same,% Mortality,[1]; [5],20%
same,Animal Mortality,[1]; [5],3/15
